{"source": "patent US9470680B2", "about": "“Fluorescence-based approach to monitor release factor-catalyzed termination of protein synthesis” (THE TRUSTEES OF COLUMBIA UNIVERSITY IN THE CITY OF NEW YORK, priority 2011, dated 2016)", "key": {"[1]": {"tested_on": "polypeptide release at a stop codon", "details": "cited from earlier work"}, "[2]": {"tested_on": "RC2 (release complex with L1(Cy5) ribosomes and (Cy3)tRNAPhe)", "experiment": "L1-tRNA smFRET monitoring the GS1/GS2 equilibrium", "type": "biochemical, Escherichia coli", "method": "RCs assembled on a biotinylated mRNA were immobilized on the surface of a streptavidin-derivatized quartz flow cell and visualized with single-molecule resolution using a total internal reflection fluorescence microscope. RC surface immobilization strategy and lab-built total internal reflection fluorescence (TIRF) microscope are described in FIG. 10. Experiments were performed at room temperature in Tris-polymix buffer at 15 mM Mg(OAc)2, supplemented with an oxygen-scavenging system (300 μg ml^−1 glucose oxidase, 40 μg ml^−1 catalase and 1% (w/v)(β-D-glucose). In addition, 1 mM 1,3,5,7-cyclooctatetraene (Aldrich) and p-nitrobenzyl alcohol (Fluka) was added to all buffers in order to quench a long-lived, non-fluorescent triplet state sampled by the Cy5 fluorophore. The oxygen-scavenging and triplet state quencher systems have no effect on the in vitro translation system used herein (Gonzalez et al. 2007; Blanchard et al. 2004b).\n(§1) Quartz microscope slides were cleaned and subsequently derivatized with a mixture of polyethyleneglycol (PEG) and PEG-biotin in order to passivate the surface (Blanchard et al. 2004b). Just prior to data acquisition, slides were treated with streptavidin, allowing immobilization of ribosomal RCs bound to an mRNA with a 3′-biotinylated DNA oligonucleotide pre-annealed to its 5′ end. smFRET data was collected with a wide-field, prism-based total internal reflection fluorescence microscope utilizing a 150 mW diode-pumped 532 nm laser (CrystaLaser) operating at 24 mW for Cy3 excitation, a 25 mW diode-pumped 643 nm laser (CrystaLaser) operating at 19 mW for direct Cy5 excitation, a Dual-View multi-channel imaging system (MAG Biosystems) for separation of Cy3 and Cy5 fluorescence emissions, and a back-thinned charge-coupled device camera (Cascade II, Princeton Instruments) with 2-pixel binning and 50 ms exposure time for detection. Single ribosomal RCs were identified by characteristic single-fluorophore fluorescence intensities as well as single-step fluorophore photobleaching.\nRaw intensity data was analyzed with the Metamorph software suite (Molecular Devices). […] For L1-tRNA smFRET experiments with RC2, excited Cy5 was directly with the 643 nm laser in frame one, followed by excitation with the 532 nm laser in order to generate FRET. […] Acquired trajectories composed of a pair of Cy3 and Cy5 intensity versus time trajectories from single ribosomes, were then visually inspected. […] For all RRF and RF3(GDPNP) datasets, an automated selection algorithm was first utilized before visual inspection of the trajectories. This algorithm averages each trajectory over three data points, differentiates intensity with respect to time, and calculates the correlation coefficient for each Cy3/Cy5 pair. Trajectories with a negative correlation coefficient (anti-correlated) were kept for further analysis. Finally, all trajectories were required to last at least 0.5 seconds (i.e. 10 frames) before photobleaching of either fluorophore.\nCy3 and Cy5 fluorescence intensities were baseline corrected in each trajectory by generating one-dimensional Cy3 and Cy5 fluorescence intensity histograms from trajectories within each dataset, determining the intensity value of the most populated bin (which represents background noise intensity after fluorophore photobleaching), and then subtracting this value from all Cy3 and Cy5 intensity data points within every trajectory. Due to the imperfect performance of emission filters, the Cy3 signal bleed-through into the Cy5 channel was experimentally determined to be ˜9%. The Cy5 intensity of each trajectory was corrected using this bleed-through coefficient. smFRET values for each Cy3/Cy5 data point were calculated using ICy5/(ICy3+ICy5), where ICy3 and ICy5 are the intensities of Cy3 and Cy5, respectively.\nThe rates of GS1→GS2 (kGS1→GS2) and G52→GS1 (kGS2→GS1) transitions for each dataset were determined as follows. […]"}, "[3]": {"tested_on": "RF1-bound RCs", "experiment": "RF3 activity assay (RF3-catalyzed RF1 recycling, multiple-turnover peptide release)", "type": "biochemical, Escherichia coli", "details": "limiting RF1; GDP, GTP or GDPNP; 10 minutes", "method": "RF3 activity was tested by following the extent of peptide release in cases where RF1 was limiting and RF3 was required to actively recycle RF1, thereby enabling multiple turnover (Zavialov et al. 2001). Reactions were performed as described, with two exceptions: when present, GDP, GTP, or GDPNP was added to the RF1/RF3 mix during the 1 minute pre-incubation, and upon adding the RF1/RF3/nucleotide mix to RCs, reactions were incubated for 10 minutes."}, "[4]": {"biological_target": "vacant ribosomes", "details": "in the absence of mRNA or tRNAs; read-out: Kd of RRF binding to vacant ribosomes; cited from earlier work"}, "[5]": {"biological_target": "GS1 conformation of the PoTC (RC2Pmn)", "experiment": "RRF titration, binding isotherm fit of GS2/GS1 peak area ratio", "parameters": "species or system Escherichia coli", "from_the_text": "(§2) To more quantitatively probe the subtle effect of RRF on the GS1⇄GS2 equilibrium, one-dimensional smFRET histograms of the entire population of trajectories were plotted as a function of RRF concentration (FIG. 24). The areas under the peaks centered at 0.16 and 0.76 FRET report the equilibrium populations of GS1 and GS2, respectively. […] Assuming that RRF can bind to both GS1 and GS2, a plot of the GS2/GS1 peak area ratio (Keq) vs. RRF concentration can be fit by the following binding isotherm in order to determine the equilibrium dissociation constants for RRF binding to GS1 (Kd,GS1) and GS2 (Kd,GS2) (Sarkar et al. 2007):\n(§3) [formula] where C is the GS2/GS1 peak area ratio in the absence of RRF."}, "[6]": {"biological_target": "GS2 conformation of the PoTC (RC2Pmn)", "experiment": "RRF titration, binding isotherm fit of GS2/GS1 peak area ratio", "parameters": "species or system Escherichia coli", "from_the_text": "as §2, §3"}, "[7]": {"tested_on": "RC1 (release complex, fMet-Phe-(Cy3)tRNAPhe in the P site, stop codon at the A site)", "experiment": "RF1-tRNA smFRET between P-site (Cy3)tRNAPhe and (Cy5)RF1 bound at the A site", "type": "binding, Escherichia coli", "details": "UAA-U stop codon, in the presence of paromomycin (100 μM per FIG. 11)", "from_the_text": "RCs assembled on a biotinylated mRNA were immobilized on the surface of a streptavidin-derivatized quartz flow cell and visualized with single-molecule resolution using a total internal reflection fluorescence microscope. RC surface immobilization strategy and lab-built total internal reflection fluorescence (TIRF) microscope are described in FIG. 10. […]\nas §1, with “Single ribosomal RCs were identified by characteristic single-fluorophore fluorescence intensities as well as single-step fluorophore photobleaching.” left out\nRaw intensity data was analyzed with the Metamorph software suite (Molecular Devices). […]"}, "[8]": {"details": "RC2 pre-treated with puromycin (RC2Pmn), no factors, corrected rate"}, "[9]": {"details": "RC2Pmn in the presence of 1 μM factor"}, "[10]": {"details": "RC2RF1 in the presence of 1 μM RF1, RF3(GDP) and 1 mM GTP"}, "[11]": {"details": "RC2RF1 in the presence of 1 μM RF1 and 1 μM RF3 form, no GTP"}, "[12]": {"details": "RC2Pmn, 0-1.5 μM RRF (near Kd,GS2)"}}, "data": [{"molecule": "NC[C@@H]1O[C@H](O[C@H]2[C@@H](O)[C@H](O[C@@H]3[C@@H](O)[C@H](N)C[C@H](N)[C@H]3O[C@H]3O[C@H](CO)[C@@H](O)[C@H](O)[C@H]3N)O[C@@H]2CO)[C@H](N)[C@@H](O)[C@@H]1O", "note": "[paromomycin]", "values": [{"measurement": "inhibition of polypeptide release at a stop codon", "setting": "[1]", "value": "very strongly inhibits polypeptide release at a stop codon"}]}, {"molecule": "COc1ccc(C[C@H](N)C(=O)N[C@H]2[C@@H](O)[C@H](n3cnc4c(N(C)C)ncnc43)O[C@@H]2CO)cc1", "note": "[puromycin, reference compound]", "values": [{"measurement": "trajectories fluctuating between 0.16 and 0.76 FRET", "setting": "[2]; RC2 pre-treated with puromycin (RC2Pmn), no factors", "value": "~63", "unit": "%"}, {"measurement": "kGS1→GS2", "setting": "[2]; [8]", "value": "0.52 ± 0.03", "unit": "s⁻¹"}, {"measurement": "kGS2→GS1", "setting": "[2]; [8]", "value": "1.36 ± 0.03", "unit": "s⁻¹"}]}, {"molecule": "RF1: Escherichia coli class 1 release factor 1, purified, co-expressed with PrmC methyltransferase", "values": [{"measurement": "trajectories fluctuating between 0.16 and 0.76 FRET", "setting": "[2]; [9]", "value": 9, "unit": "%"}, {"measurement": "trajectories stably centered at / sampling only 0.16 FRET (GS1)", "setting": "[2]; [9]", "value": 85, "unit": "%"}, {"measurement": "trajectories stably centered at / sampling only 0.76 FRET (GS2)", "setting": "[2]; [9]", "value": 6, "unit": "%"}, {"measurement": "trajectories fluctuating between 0.16 and 0.76 FRET", "setting": "[2]; RC2 in the presence of 1 μM factor", "value": 2, "unit": "%"}, {"measurement": "trajectories stably centered at 0.16 FRET (GS1)", "setting": "[2]; RC2 in the presence of 1 μM factor (87% without RF1)", "value": 98, "unit": "%"}]}, {"molecule": "RF3(GDP): RF3 in the GDP form", "values": [{"measurement": "kGS2→GS1 relative to RC2Pmn in the absence of RF1, RF3 and guanine nucleotide", "setting": "[2]; RC2RF1+RF3(GDP)+GTP versus 1.36±0.03 s^−1", "value": "~3", "unit": "fold"}, {"measurement": "kGS2→GS1", "setting": "[2]; RC2RF1+RF3(GDP)+GTP, 1 μM RF1, 10 μM GDP and 1 mM GTP, corrected rate, lower limit", "value": "≥ 3.7 ± 0.6", "unit": "s⁻¹"}, {"measurement": "trajectories exhibiting fluctuations between GS1 and GS2", "setting": "[2]; [10]", "value": 42, "unit": "%"}, {"measurement": "trajectories stably centered at 0.16 FRET (GS1)", "setting": "[2]; [10]", "value": 58, "unit": "%"}, {"measurement": "trajectories fluctuating between 0.16 and 0.76 FRET", "setting": "[2]; [11]", "value": 2, "unit": "%"}, {"measurement": "trajectories stably centered at 0.16 FRET (GS1)", "setting": "[2]; [11]", "value": 98, "unit": "%"}]}, {"molecule": "RF3(GDPNP): RF3 with GDPNP, a non-hydrolyzable GTP analog", "values": [{"measurement": "trajectories fluctuating between 0.16 and 0.76 FRET", "setting": "[2]; [9]", "value": 22, "unit": "%"}, {"measurement": "trajectories stably centered at / sampling only 0.16 FRET (GS1)", "setting": "[2]; [9]", "value": 5, "unit": "%"}, {"measurement": "trajectories stably centered at / sampling only 0.76 FRET (GS2)", "setting": "[2]; [9]", "value": 73, "unit": "%"}]}, {"molecule": "RF3: Escherichia coli class II release factor, a GTPase", "values": [{"measurement": "nucleotide dependence of RF3-catalyzed RF1 recycling", "setting": "[3]", "value": "exhibits the proper nucleotide dependence in recycling RF1"}]}, {"molecule": "RRF: Escherichia coli ribosome recycling factor", "values": [{"measurement": "Kd", "setting": "[4]", "value": "200 to 600", "unit": "nM"}, {"measurement": "kGS1→GS2 relative to free RC2Pmn", "setting": "[2]; 50 μM RRF versus 0.52±0.03 s^−1", "value": 1.6, "unit": "fold"}, {"measurement": "trajectories fluctuating between 0.16 and 0.76 FRET", "setting": "[2]; [9]", "value": 70, "unit": "%"}, {"measurement": "trajectories stably centered at / sampling only 0.16 FRET (GS1)", "setting": "[2]; [9]", "value": 7, "unit": "%"}, {"measurement": "trajectories stably centered at / sampling only 0.76 FRET (GS2)", "setting": "[2]; [9]", "value": 23, "unit": "%"}, {"measurement": "kGS1→GS2 as a function of RRF concentration", "setting": "[2]; [12]", "value": "remain unchanged"}, {"measurement": "kGS2→GS1 as a function of RRF concentration", "setting": "[2]; [12]", "value": "decreases linearly"}, {"measurement": "kGS1→GS2", "setting": "[2]; RC2Pmn, 50 μM RRF", "value": "0.83 ± 0.06", "unit": "s⁻¹"}, {"measurement": "Kd", "setting": "[5]", "value": "12000 ± 2000", "unit": "nM"}, {"measurement": "Kd", "setting": "[6]; RC2Pmn + RRF titration", "value": "900 ± 300", "unit": "nM"}, {"measurement": "binding to GS2 over GS1", "setting": "[6]; from Kd,GS2 and Kd,GS1", "value": "greater than an order of magnitude tighter binding to GS2 over GS1"}]}, {"molecule": "S192C: single-cysteine S192C RF1 (PVT domain) labeled with Cy5", "values": [{"measurement": "lifetime of the FRET state (dwell time analysis)", "setting": "[7]", "value": "< 0.38 ± 0.02", "unit": "s"}]}, {"molecule": "nucleotide-free RF3: RF3 without guanine nucleotide", "values": [{"measurement": "trajectories fluctuating between 0.16 and 0.76 FRET", "setting": "[2]; [11]", "value": 1, "unit": "%"}, {"measurement": "trajectories stably centered at 0.16 FRET (GS1)", "setting": "[2]; [11]", "value": 99, "unit": "%"}]}]}
